# Data reported in PubChem BioAssay (NCI).
#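 Exposure lasted 48 hours, with cells grown in 96-well plates and compounds tested at five concentrations. TGI: concentration producing complete growth inhibition.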
# Legend:
# Test in all cases: NCI anticancer screen, dose series, 48 h
# [1] = test system: MOLT-4 leukemia
# [2] = test system: HCT-15 colon
# [3] = test system: HS 578T breast
# [4] = test system: COLO 205 colon
# [5] = test system: KM12 colon
# [6] = test system: LOX IMVI melanoma
# [7] = test system: U251 CNS
# [8] = test system: CAKI-1 renal
# [9] = test system: CCRF-CEM leukemia
# [10] = test system: DU-145 prostate
# [11] = test system: 786-0 renal
# [12] = test system: A498 renal
# [13] = test system: SK-MEL-28 melanoma
# [14] = test system: BT-549 breast
# [15] = test system: SR leukemia
# [16] = test system: SN12C renal
# [17] = test system: UACC-62 melanoma
# [18] = test system: M14 melanoma
# [19] = test system: NCI-H460 lung
# [20] = test system: MDA-MB-435
# [21] = test system: HOP-62 NSCLC
# [22] = test system: TK-10 renal
# [23] = test system: A549 NSCLC
# [24] = test system: HCC-2998 colon
# [25] = test system: T-47D breast
# [26] = test system: SW-620 colon
# [27] = test system: HOP-92 NSCLC
# [28] = test system: MCF7 breast
# [29] = test system: MDA-N
# [30] = test system: MALME-3M melanoma
# [31] = test system: UACC-257 melanoma
# [32] = test system: HL-60(TB) leukemia
# [33] = test system: HCT-116 colon
# [34] = test system: SNB-75 CNS
# [35] = test system: SK-OV-3 ovarian
# [36] = test system: ACHN renal
# [37] = test system: NCI-H522 lung
# [38] = test system: SF-268 CNS
# [39] = test system: NCI-H23 lung
# [40] = test system: SF-539 CNS
# [41] = test system: UO-31 renal
# [42] = test system: PC-3 prostate
# [43] = test system: SNB-19 CNS
# [44] = test system: OVCAR-5 ovarian
# [45] = test system: MDA-MB-231 breast
# [46] = test system: SF-295 CNS
# [47] = test system: K-562 leukemia
# [48] = test system: OVCAR-3 ovarian
# [49] = test system: SK-MEL-2 melanoma
# [50] = test system: NCI/ADR-RES ovarian
# [51] = test system: SK-MEL-5 melanoma
# [52] = test system: NCI-H226 lung
# [53] = test system: OVCAR-4 ovarian
# [54] = test system: EKVX NSCLC
# [55] = test system: HT29 colon
# [56] = test system: OVCAR-8 ovarian
# [57] = test system: IGROV1 ovarian
# [58] = test system: RPMI-8226 leukemia
# [59] = test system: RXF 393 renal
smiles,measurement,setting,value
Cc1[nH]n(-c2ccccc2)c(=O)c1C(N(CCc1ccccc1)C1=NCC(C)S1)(C(F)(F)F)C(F)(F)F (stereo not given),TGI,[1],97.8 µM
same,TGI,[2],41.1 µM
same,TGI,[3],88.4 µM
same,TGI,[4],18.7 µM
same,TGI,[5],> 100 µM
same,TGI,[6],> 100 µM
same,TGI,[7],31.2 µM
same,TGI,[8],> 100 µM
same,TGI,[9],68.7 µM
same,TGI,[10],> 100 µM
same,TGI,[11],34.9 µM
same,TGI,[12],30.9 µM
same,TGI,[13],51.2 µM
same,TGI,[14],49.1 µM
same,TGI,[15],90.4 µM
same,TGI,[16],48.5 µM
same,TGI,[17],24 µM
same,TGI,[18],32.2 µM
same,TGI,[19],38.2 µM
same,TGI,[20],> 100 µM
same,TGI,[21],87.6 µM
same,TGI,[22],> 100 µM
same,TGI,[23],83.7 µM
same,TGI,[24],34 µM
same,TGI,[25],43.1 µM
same,TGI,[26],95.3 µM
same,TGI,[27],58.5 µM
same,TGI,[28],> 100 µM
same,TGI,[29],45.7 µM
same,TGI,[30],97.9 µM
same,TGI,[31],56.7 µM
same,TGI,[32],52.5 µM
same,TGI,[33],23.8 µM
same,TGI,[34],50.1 µM
same,TGI,[35],95.1 µM
same,TGI,[36],79.3 µM
same,TGI,[37],28.2 µM
same,TGI,[38],> 100 µM
same,TGI,[39],20 µM
same,TGI,[40],32.3 µM
same,TGI,[41],25.3 µM
same,TGI,[42],84.9 µM
same,TGI,[43],> 100 µM
same,TGI,[44],88 µM
same,TGI,[45],65.6 µM
same,TGI,[46],84.2 µM
same,TGI,[47],> 100 µM
same,TGI,[48],> 100 µM
same,TGI,[49],22.4 µM
same,TGI,[50],89 µM
same,TGI,[51],21.5 µM
same,TGI,[52],29.5 µM
same,TGI,[53],> 100 µM
same,TGI,[54],36.4 µM
same,TGI,[55],> 100 µM
CCCCc1ccc(Nc2nc(Cl)c3ncn(C4CC(Oc5ccc(C)cc5)C(COc5ccc(C)cc5)O4)c3n2)cc1 (stereo not given),TGI,[1],> 100 µM
same,TGI,[56],> 100 µM
same,TGI,[2],> 100 µM
same,TGI,[3],> 100 µM
same,TGI,[4],> 100 µM
same,TGI,[5],> 100 µM
same,TGI,[6],> 100 µM
same,TGI,[8],30.9 µM
same,TGI,[9],> 100 µM
same,TGI,[10],> 100 µM
same,TGI,[11],> 100 µM
same,TGI,[12],> 100 µM
same,TGI,[14],> 100 µM
same,TGI,[15],> 100 µM
same,TGI,[16],> 100 µM
same,TGI,[17],> 100 µM
same,TGI,[57],> 100 µM
same,TGI,[18],> 100 µM
same,TGI,[20],> 100 µM
same,TGI,[21],> 100 µM
same,TGI,[22],> 100 µM
same,TGI,[23],> 100 µM
same,TGI,[24],> 100 µM
same,TGI,[25],> 100 µM
same,TGI,[26],> 100 µM
same,TGI,[27],> 100 µM
same,TGI,[28],> 100 µM
same,TGI,[29],> 100 µM
same,TGI,[30],> 100 µM
same,TGI,[31],> 100 µM
same,TGI,[32],> 100 µM
same,TGI,[33],> 100 µM
same,TGI,[34],> 100 µM
same,TGI,[35],> 100 µM
same,TGI,[36],> 100 µM
same,TGI,[37],> 100 µM
same,TGI,[38],> 100 µM
same,TGI,[39],> 100 µM
same,TGI,[40],> 100 µM
same,TGI,[58],> 100 µM
same,TGI,[41],> 100 µM
same,TGI,[59],> 100 µM
same,TGI,[43],> 100 µM
same,TGI,[44],> 100 µM
same,TGI,[45],> 100 µM
same,TGI,[46],> 100 µM
same,TGI,[47],> 100 µM
same,TGI,[48],> 100 µM
same,TGI,[49],> 100 µM
same,TGI,[50],> 100 µM
same,TGI,[51],> 100 µM
same,TGI,[52],> 100 µM
same,TGI,[54],> 100 µM
same,TGI,[55],> 100 µM
COC(=O)C(/C(=N/N)C(=O)Nc1cccc(O)c1)c1nc2ccccc2[nH]c1=O (stereo not given),TGI,[1],> 100 µM
same,TGI,[56],> 100 µM
same,TGI,[2],> 100 µM
same,TGI,[3],> 100 µM
same,TGI,[5],> 100 µM
same,TGI,[6],> 100 µM
same,TGI,[7],> 100 µM
same,TGI,[8],> 100 µM
same,TGI,[11],> 100 µM
same,TGI,[12],> 100 µM
same,TGI,[13],> 100 µM
same,TGI,[14],> 100 µM
same,TGI,[15],> 100 µM
same,TGI,[16],> 100 µM
same,TGI,[17],> 100 µM
same,TGI,[57],> 100 µM
same,TGI,[18],> 100 µM
same,TGI,[19],> 100 µM
same,TGI,[20],> 100 µM
same,TGI,[21],> 100 µM
same,TGI,[22],> 100 µM
same,TGI,[23],> 100 µM
same,TGI,[24],> 100 µM
same,TGI,[25],> 100 µM
same,TGI,[26],> 100 µM
same,TGI,[27],> 100 µM
same,TGI,[28],> 100 µM
same,TGI,[29],> 100 µM
same,TGI,[31],> 100 µM
same,TGI,[32],> 100 µM
same,TGI,[33],> 100 µM
same,TGI,[34],> 100 µM
same,TGI,[35],> 100 µM
same,TGI,[36],> 100 µM
same,TGI,[37],> 100 µM
same,TGI,[38],> 100 µM
same,TGI,[39],> 100 µM
same,TGI,[40],> 100 µM
same,TGI,[41],> 100 µM
same,TGI,[59],> 100 µM
same,TGI,[42],> 100 µM
same,TGI,[43],> 100 µM
same,TGI,[44],> 100 µM
same,TGI,[45],> 100 µM
same,TGI,[46],> 100 µM
same,TGI,[47],> 100 µM
same,TGI,[48],> 100 µM
same,TGI,[49],> 100 µM
same,TGI,[50],> 100 µM
same,TGI,[51],> 100 µM
same,TGI,[52],> 100 µM
same,TGI,[53],> 100 µM
same,TGI,[54],> 100 µM
same,TGI,[55],> 100 µM
N=c1oc2ccc(Cl)cc2cc1C(N)=O,TGI,[1],> 100 µM
same,TGI,[56],> 100 µM
same,TGI,[2],69.2 µM
same,TGI,[3],63.9 µM
same,TGI,[4],> 100 µM
same,TGI,[5],88.4 µM
same,TGI,[6],> 100 µM
same,TGI,[7],> 100 µM
same,TGI,[8],> 100 µM
same,TGI,[9],> 100 µM
same,TGI,[10],> 100 µM
same,TGI,[11],73 µM
same,TGI,[12],> 100 µM
same,TGI,[13],> 100 µM
same,TGI,[14],> 100 µM
same,TGI,[15],> 100 µM
same,TGI,[16],45.1 µM
same,TGI,[17],41.3 µM
same,TGI,[57],> 100 µM
same,TGI,[18],> 100 µM
same,TGI,[19],> 100 µM
same,TGI,[20],82 µM
same,TGI,[23],> 100 µM
same,TGI,[24],47.4 µM
same,TGI,[25],94.6 µM
same,TGI,[26],> 100 µM
same,TGI,[27],> 100 µM
same,TGI,[29],69.1 µM
same,TGI,[30],37.1 µM
same,TGI,[31],> 100 µM
same,TGI,[32],> 100 µM
same,TGI,[33],61.7 µM
same,TGI,[34],> 100 µM
same,TGI,[35],> 100 µM
same,TGI,[36],> 100 µM
same,TGI,[38],> 100 µM
same,TGI,[39],75.1 µM
same,TGI,[40],> 100 µM
same,TGI,[58],> 100 µM
same,TGI,[59],> 100 µM
same,TGI,[42],72.8 µM
same,TGI,[43],> 100 µM
same,TGI,[44],> 100 µM
same,TGI,[45],69 µM
same,TGI,[47],> 100 µM
same,TGI,[48],64.9 µM
same,TGI,[49],31.8 µM
same,TGI,[50],> 100 µM
same,TGI,[51],47 µM
same,TGI,[52],78.1 µM
same,TGI,[53],85.9 µM
same,TGI,[55],> 100 µM
